Experimental findings from patent US20140135319A1, “6-SUBSTITUTED IMIDAZOPYRAZINES FOR USE AS MPS-1 AND TKK INHIBITORS IN THE TREATMENT OF HYPERPROLIFERATIVE DISORDERS” (BAYER INTELLECTUAL PROPERTY GMBH, priority 2010, published 2014) are described below.

For the assay, the target named is T1, human kinase Mps-1 (Homo sapiens, UniProt P33981).
T1 construct: N-terminally GST-tagged human full length recombinant Mps-1 kinase; GST (N); purchased Invitrogen, Karslruhe, Germany PV4071
T1 sequence (P33981 1-857): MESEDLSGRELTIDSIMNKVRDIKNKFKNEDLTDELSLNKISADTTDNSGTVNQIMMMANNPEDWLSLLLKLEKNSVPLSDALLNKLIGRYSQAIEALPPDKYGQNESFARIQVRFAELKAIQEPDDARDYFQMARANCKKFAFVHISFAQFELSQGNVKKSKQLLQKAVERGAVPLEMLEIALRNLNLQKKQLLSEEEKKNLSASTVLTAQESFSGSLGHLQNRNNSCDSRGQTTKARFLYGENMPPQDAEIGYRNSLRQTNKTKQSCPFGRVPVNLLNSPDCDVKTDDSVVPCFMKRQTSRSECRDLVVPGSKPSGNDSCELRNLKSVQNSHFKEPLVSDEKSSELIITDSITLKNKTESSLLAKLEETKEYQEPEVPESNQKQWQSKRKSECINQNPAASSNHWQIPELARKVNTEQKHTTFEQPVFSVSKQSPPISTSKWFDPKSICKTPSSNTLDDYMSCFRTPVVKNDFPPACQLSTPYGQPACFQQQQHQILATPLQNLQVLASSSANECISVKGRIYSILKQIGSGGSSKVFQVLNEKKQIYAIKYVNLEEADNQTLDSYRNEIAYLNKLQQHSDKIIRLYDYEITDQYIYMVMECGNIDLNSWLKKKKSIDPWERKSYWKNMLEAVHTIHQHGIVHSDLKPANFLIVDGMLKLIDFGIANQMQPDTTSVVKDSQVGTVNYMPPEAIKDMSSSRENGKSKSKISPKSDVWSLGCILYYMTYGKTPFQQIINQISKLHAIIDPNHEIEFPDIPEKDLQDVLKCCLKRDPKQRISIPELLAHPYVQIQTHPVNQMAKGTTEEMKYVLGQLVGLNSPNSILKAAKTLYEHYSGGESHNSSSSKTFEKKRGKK
The assay is described as follows: Mps-1 kinase assay (TR-FRET). It counts as biochemical. The following applies: GST-tagged human full length recombinant Mps-1; 10 μM ATP; 1 μM peptide substrate; 60 min at 22° C. How it is done: The human kinase Mps-1 phosphorylates a biotinylated substrate peptide. Detection of the phosphorylated product is achieved by time-resolved fluorescence resonance energy transfer (TR-FRET) from Europium-labelled anti-phospho-Serine/Threonine antibody as donor to streptavidin labelled with cross-linked allophycocyanin (SA-XLent) as acceptor. Compounds are tested for their inhibition of the kinase activity.
N-terminally GST-tagged human full length recombinant Mps-1 kinase (purchased from Invitrogen, Karslruhe, Germany, cat. no PV4071) was used. As substrate for the kinase reaction a biotinylated peptide of the amino-acid sequence […] (C-terminus in amide form, purchased from Biosynthan GmbH, Berlin) was used.
The concentration of Mps-1 in the assay was adjusted to the activity of the enzyme lot and was chosen appropriate to have the assay in the linear range, typical enzyme concentrations were in the range of about 1 nM (final conc. in the 5 μl assay volume).
The resulting mixture was incubated 1 h at 22° C. to allow the binding of the phosphorylated peptide to the anti-phospho(Ser/Thr)-Europium-antibody. Subsequently the amount of phosphorylated substrate was evaluated by measurement of the resonance energy transfer from the Europium-labelled anti-phospho(Ser/Thr) antibody to the Streptavidin-XLent. Therefore, the fluorescence emissions at 620 nm and 665 nm after excitation at 350 nm was measured in a Viewlux TR-FRET reader (PerkinElmer LAS, Rodgau-Jügesheim, Germany). The “blank-corrected normalized ratio” (a Viewlux specific readout, similar to the traditional ratio of the emissions at 665 nm and at 622 nm, in which blank and Eu-donor crosstalk are subtracted from the 665 nm signal before the ratio is calculated) was taken as the measure for the amount of phosphorylated substrate.
For the molecule `CC(C)CNc1nc(-c2ccncc2)cn2c(-c3ccc(C(=O)NC4CC4)cc3)cnc12` [Example 1-1, N-cyclopropyl-4-{8-[(2-methylpropyl)amino]-6-(pyridin-4-yl)imidazo[1,2-a]pyrazin-3-yl}benzamide], the IC50 – broadly, the concentration at which inhibition is half-maximal – is 1.8 nM.
Consider `CC(C)CNc1nc(-c2cnc3ccccc3c2)cn2c(-c3ccc(C(=O)NC4CC4)cc3)cnc12` [Example 1-2, N-cyclopropyl-4-{8-[(2-methylpropyl)amino]-6-(quinolin-3-yl)imidazo [1,2-a]pyrazin-3-yl} benzamide], for which the IC50 is 43.8 nM.
Regarding `COc1ncc(-c2cn3c(-c4ccc(C(=O)NC5CC5)cc4)cnc3c(NCC(C)C)n2)cn1` [Example 1-3, N-cyclopropyl-4-{6-(2-methoxypyrimidin-5-yl)-8-[(2-methylpropyl)amino]imidazo[1,2-a]pyrazin-3-yl}benzamide], the IC50 came to 12.7 nM.
In the case of `CC(C)CNc1nc(-c2ccnc3ccccc23)cn2c(-c3ccc(C(=O)NC4CC4)cc3)cnc12` [Example 1-4, N-cyclopropyl-4-{8-[(2-methylpropyl)amino]-6-(quinolin-4-yl)imidazo [1,2-a]pyrazin-3-yl} benzamide], the IC50 worked out at 3.3 nM.
Turning to `CC(C)CNc1nc(-c2ccc(F)nc2)cn2c(-c3ccc(C(=O)NC4CC4)cc3)cnc12` [Example 1-5, N-cyclopropyl-4-{6-(6-fluoropyridin-3-yl)-8-[(2-methylpropyl)amino]imidazo[1,2-a]pyrazin-3-yl}benzamide], the IC50 was found to be 4.2 nM.
Consider `CC(C)CNc1nc(-c2ccc3c(ccn3C)c2)cn2c(-c3ccc(C(=O)NC4CC4)cc3)cnc12` [Example 1-6, N-cyclopropyl-4-{6-(1-methyl-1H-indol-5-yl)-8-[(2-methylpropyl)amino]imidazo[1,2-a]pyrazin-3-yl}benzamide], for which the 50% inhibitory concentration (IC50) was determined as 6.8 nM.
In the case of `CC(C)CNc1nc(-c2ccnc(Cl)c2)cn2c(-c3ccc(C(=O)NC4CC4)cc3)cnc12` [Example 1-7, 4-{6-(2-chloropyridin-4-yl)-8-[(2-methylpropyl)amino]imidazo[1,2-a]pyrazin-3-yl}-N-cyclo-propylbenzamide], the 50% inhibitory concentration (IC50) stood at 4.2 nM.
As for `CC(C)CNc1nc(-c2cnn(C)c2)cn2c(-c3ccc(C(=O)NC4CC4)cc3)cnc12` [Example 1-8, N-cyclopropyl-4-{8-[(2-methylpropyl)amino]-6-(1-methyl-1H-pyrazol-4-yl)imidazo[1,2-a]pyrazin-3-yl}benzamide], the figure is 4.6 nM.
As to `CC(C)CNc1nc(-c2cccs2)cn2c(-c3ccc(C(=O)NC4CC4)cc3)cnc12` [Example 1-9, N-cyclopropyl-4-{8-[(2-methylpropyl)amino]-6-(thiophen-2-yl)imidazo [1,2-a]pyrazin-3-yl} benzamide], the IC50 was found to be 8 nM.
For the molecule `CC(C)CNc1nc(-c2ccsc2)cn2c(-c3ccc(C(=O)NC4CC4)cc3)cnc12` [Example 1-10, N-cyclopropyl-4-{8-[(2-methylpropyl)amino]-6-(thiophen-3-yl)imidazo [1,2-a]pyrazin-3-yl} benzamide], the IC50 amounted to 3.4 nM.
Consider `CC(C)CNc1nc(-c2cc3ccccc3o2)cn2c(-c3ccc(C(=O)NC4CC4)cc3)cnc12` [Example 1-11, 4-{6-(1-benzofuran-2-yl)-8-[(2-methylpropyl)amino]imidazo[1,2-a]pyrazin-3-yl}-N-cyclo-propylbenzamide], for which the IC50 came to 78.8 nM.
`CC(C)CNc1nc(-c2cc3ccccc3s2)cn2c(-c3ccc(C(=O)NC4CC4)cc3)cnc12` [Example 1-12, 4-{6-(1-benzothiophen-2-yl)-8-[(2-methylpropyl)amino]imidazo[1,2-a]pyrazin-3-yl}-N-cyclo-propylbenzamide]: the IC50 was 142 nM.
As for `CC(C)CNc1nc(-c2ccnn2C)cn2c(-c3ccc(C(=O)NC4CC4)cc3)cnc12` [Example 1-13, N-cyclopropyl-4-{8-[(2-methylpropyl)amino]-6-(1-methyl-1H-pyrazol-5-yl)imidazo[1,2-a]pyrazin-3-yl}benzamide], the 50% inhibitory concentration (IC50) was determined as 29.5 nM.
As for `CC(C)CNc1nc(-c2csc3ccccc23)cn2c(-c3ccc(C(=O)NC4CC4)cc3)cnc12` [Example 1-14, 4-{6-(1-benzothiophen-3-yl)-8-[(2-methylpropyl)amino]imidazo[1,2-a]pyrazin-3-yl}-N-cyclo-propylbenzamide], the figure is 6.9 nM; as for `Cc1ccc(-c2cn3c(-c4ccc(C(=O)NC5CC5)cc4)cnc3c(NCC(C)C)n2)s1` [Example 1-15, N-cyclopropyl-4-{8-[(2-methylpropyl)amino]-6-(5-methylthiophen-2-yl)imidazo[1,2-a]pyrazin-3-yl}benzamide], 55.4 nM; as for `Cc1ccc2sc(-c3cn4c(-c5ccc(C(=O)NC6CC6)cc5)cnc4c(NCC(C)C)n3)cc2c1` [Example 1-16, N-cyclopropyl-4-{6-(5-methyl-1-benzothiophen-2-yl)-8-[(2-methylpropyl)amino]imidazo[1,2-a]pyrazin-3-yl}benzamide], 104 nM.
On to `CC(C)CNc1nc(-c2cncnc2)cn2c(-c3ccc(C(=O)NC4CC4)cc3)cnc12` [Example 1-17, N-cyclopropyl-4-{8-[(2-methylpropyl)amino]-6-(pyrimidin-5-yl)imidazo [1,2-a]pyrazin-3-yl} benzamide], for which the IC50 was 16.5 nM.
As for `CC(=O)NCc1ccc(-c2cn3c(-c4ccc(C(=O)NC5CC5)cc4)cnc3c(NCC(C)C)n2)cc1` [Example 1-18, 4-(6-{4-[(acetylamino)methyl]phenyl}-8-[(2-methylpropyl)amino]imidazo[1,2-a]pyrazin-3-yl)-N-cyclopropyl-benzamide], the figure is 1.6 nM; as for `CC(C)CNc1nc(-c2ccc3nccn3c2)cn2c(-c3ccc(C(=O)NC4CC4)cc3)cnc12` [Example 1-19, N-cyclopropyl-4-{6-(imidazo[1,2-a]pyridin-6-yl)-8-[(2-methylpropyl)amino]imidazo[1,2-a]pyrazin-3-yl}benzamide], 2.2 nM; as for `Cc1ccc(-c2cn3c(-c4ccc(C(=O)NC5CC5)cc4)cnc3c(NCC(C)C)n2)cn1` [Example 1-20, N-cyclopropyl-4-{8-[(2-methylpropyl)amino]-6-(6-methylpyridin-3-yl)imidazo[1,2-a]pyrazin-3-yl}benzamide], 2.9 nM.
Consider `CC(C)CNc1nc(-c2cncc(F)c2)cn2c(-c3ccc(C(=O)NC4CC4)cc3)cnc12` [Example 1-21, N-cyclopropyl-4-{6-(5-fluoropyridin-3-yl)-8-[(2-methylpropyl)amino]imidazo[1,2-a]pyrazin-3-yl}benzamide], for which the half-maximal inhibitory concentration (IC50) stood at 19.4 nM.
`Cc1nnc(-c2ccc(-c3cn4c(-c5ccc(C(=O)NC6CC6)cc5)cnc4c(NCC(C)C)n3)cc2)o1` [Example 1-22, N-cyclopropyl-4-{6-[4-(5-methyl-1,3,4-oxadiazol-2-yl)phenyl]-8-[(2-methylpropyl)amino]imidazo[1,2-a]pyrazin-3-yl}benzamide]: the IC50 is 2.3 nM.
In the case of `CC(C)CNc1nc(-c2ccc(S(=O)(=O)n3cccc3)cc2)cn2c(-c3ccc(C(=O)NC4CC4)cc3)cnc12` [Example 1-23, N-cyclopropyl-4-{8-[(2-methylpropyl)amino]-6-[4-(1H-pyrrol-1-yl-sulonyl)phenyl]imidazo [1,2-a]pyrazin-3-yl} benzamide], the IC50 was 13.1 nM.
